Columns and labels:
Assay type in all cases: in vivo, mouse
Berkeley mice [1] = experiment: MRI perfusion (FAIR-Quipps) cerebral blood flow in Berkeley mice
Description: (§1) Experimental Design & Methods: Dose Efficacy Experiment: A single oral dose (gavage) of pyridoxamine (400 mg/kg) was administered to BERK mice (n=6) or C57bl WT mice (n=4) and CBF and deoxyHb levels measured (see below for Measurement Parameters) before treatment and 2 h, 24 h, 72 h, 5 days and 9 days after treatment. Measurement Parameters: Each animal was assessed for several parameters by magnetic resonance imaging (MRI) methods on a 9.4 T Agilent MRI system. The primary MRI methods included brain and muscle perfusion, water diffusivity and oxygenation. Data acquisition was by multi-shot (8) Echo Planer Imaging (msEPI) (segmented and interleaved). Perfusion data were acquired using amultislice FAIR-Quipps approach, and blood oxygenation was determined from T2w msEPI (BOLD). Inflammation was inferred from the mean diffusivity of water calculated from a Diffusion Tensor Imaging (DTI) measurement which estimates the apparent diffusion coefficient of water (ADC). Transverse relaxation (T2) will be assessed for tissue free-water content using 30 echos (TE: 1.3 ms-240 ms) using multiecho-spin echo approaches. Longitudinal relaxation (T1) is assessed using EPI-inversion recovery (T1: 0.1 s-7 s, TR 8 s). Tissue Oxygenation: Bold Oxygen Level Dependent (BOLD) measurements were made during a hyperoxia challenge. MRI begins while animals are exposed to 20% O2/80% N2 (6 min) and imaging continues while the inspired gas is switched to 100% O2, maintained for 6 minutes, then returned to normal room air levels. BOLD image signal intensity (echo-planer T2* weighted imaging) is inversely sensitive to deoxyHb levels, such that an increase in deoxyHb/oxyHb ratio causes a decrease in BOLD signal, while a decrease in this ratio causes an increase in BOLD signal intensity. Perfusion measurements: Quantitative perfusion measurements (FAIR-Quipps) employ a volume coil for arterial labeling, and surface coil for signal measurement, and a TI of 1200 ms. Water diffusion coefficient: DTI data were collected using a 7 direction assessment, from which both the mean diffusivity (DTI-MD) and fractional anisotropy (DTI-FA) were obtained. DTI-FA provides a measure of white matter integrity and DTI-MD, along with tissue T2 provides a measure of tissue inflammation.
Data Analysis & Interpretation: All images are co-registered to a template using FSL tools (FMRIB Software library, Oxford, UK). The template was constructed of an averaged high-resolution averaged T2-weighted image from 3 co-registered BERK mice, or 3 co-registered C57bl mice. Regions of interest (ROI's) were drawn from standard atlases (Paxonis) on the template, and include white matter (CC and External Caudate), gray matter (Somatosensory, Motor, Frontal, Parietal) Cortex, hippocampus, basal ganglia, cingulate, and others) and cranial muscle from the anterior region of the head. Image data was converted from native format to NIFTI format, intensity flattened, phase corrected, orientation corrected, and registered to the template. Perfusion, BOLD activation ratios and metabolite ratios were calculated using MATLAB (Mathworks, Natick, Mass.). Parameter maps were calculated using a non-linear least squares in Matlab, or using the FMRIB FSL-based Diffusion Toolbox (DTIFIT). Registration was accomplished using the FSL-FLIRT routine. […]

Berkeley mice [2] = experiment: BOLD MRI during hyperoxia challenge (tissue oxygenation, deoxyHb/oxyHb ratio) in Berkeley mice; conditions: single oral dose 400 mg/kg, gavage
Description: as §1, with “BOLD image signal intensity (echo-planer T2* weighted imaging) is inversely sensitive to deoxyHb levels, such that an increase in deoxyHb/oxyHb ratio causes a decrease in BOLD signal, while a decrease in this ratio causes an increase in BOLD signal intensity.” left out, “Water diffusion coefficient: DTI data were collected using a 7 direction assessment, from which both the mean diffusivity (DTI-MD) and fractional anisotropy (DTI-FA) were obtained. DTI-FA provides a measure of white matter integrity and DTI-MD, along with tissue T2 provides a measure of tissue inflammation.” left out
Data Analysis & Interpretation: All images are co-registered to a template using FSL tools (FMRIB Software library, Oxford, UK). […] Perfusion, BOLD activation ratios and metabolite ratios were calculated using MATLAB (Mathworks, Natick, Mass.). Parameter maps were calculated using a non-linear least squares in Matlab, or using the FMRIB FSL-based Diffusion Toolbox (DTIFIT). […]

Berkeley mice [3] = experiment: Hypoxia/reoxygenation in Berkeley mice, intravital microscopy; conditions: single i.p. dose; Berkeley mice exposed to hypoxic stress
NY1DD mice = experiment: Hypoxia/reoxygenation in NY1DD mice, intravital microscopy of cremaster venules
Description: NY1DD mice (2×n=6) were exposed to hypoxia for 16 h (gas mixture=10% O2, 0.5% CO2 and balance N2). One group of NY1 DD was then be given an intraperitoneal (i.p.) dose of pyridoxamine (400 mg/kg), dissolved in phosphate buffered saline (PBS), prior to 3 h reoxygenation in ambient conditions. The second group of NY1 DD mice was put through the same hypoxia/reoxygenation process and given vehicle (PBS) as a negative control. Healthy C57 BL/6J mice were used as healthy controls and were not exposed to hypoxia/reoxygenation stress. At the end of the reoxygenation period, the cremaster muscle was excised for intravital microscopy analysis. Intravital microscopy: Mice were anesthetized i.p. with 10% urethane and 2% α-chloralose in saline (6 ml/kg). The animals were tracheotomized and the left carotid artery cannulated to monitor systemic arterial pressure. The open cremaster muscle was prepared according to the method of Baez. The surface of the open cremaster muscle was suffused with a bicarbonate Ringer's solution of the following millimolar composition: NaCl 135.0, KCl 5.0, NaHCO3 27.0, MgCl2 0.64 and glucose 11.6. pH was adjusted to 7.35-7.4 by continuous bubbling with […]. The osmolarity of the solution, as measured by a Microosmette (Precision Systems, Inc., Sudsbury, MA) was 320 mOsm which is similar to that reported for the mouse plasma. The cremaster muscle preparation was allowed to stabilize for 30 min before the initiation of the experiment. The temperature of the suffusion solution (flow rate, 5-6 ml/min) bathing the cremaster was maintained at 34.5-35° C. and monitored by a telethermometer (YSI Inc., Yellowsprings, Ohio) during the entire experiment. Oxygen tension of the suffusion solution bathing the tissue was determined using a microoxygen electrode (model MI-730; Microelectrodes Inc., Bedford, N.H.). Microscopic observations were carried out using microscope (model BH-2; Olympus Corp., Lake Success, N.Y.) equipped with a television camera (5000 Series; Cohu, Inc., San Diego, Calif.) and a Sony U-matic video recorder (model V05800; Sony Corp., Teaneck, N.J.). Identification of venules and arterioles for observation was determined according to the published procedure. Vessel luminal diameter was measured on-line by image shearing using an image shearing device (model 907; Instruments for Physiology and Medicine, San Diego, Calif.). Red cell velocity (Vrbc) was measured along the vessel centerline using the dual-slit photodiode technique of Wayland and Johnson […]. The dual-slit photo detector was placed over the projected image of the vessel and on-line analysis of the optical signals was performed using a cross-correlator as described by Tompkins et al. (Model 102 BF; instruments for Physiology and Medicine). Vrbc measurements were made using a water immersion ×40 objective and ×6.3 eyepiece. The wall shear rates were calculated from the mean Vrbc (Vmean) and vessel diameter. The centerline Vrbc was converted to the mean red cell velocity across the vessel diameter using a conversion factor of 1.6 (Vrbc/Vmean=1.6) originally described by Baker and Wayland. Shear rates along the wall of microvessel of a given internal diameter (D) were calculated using the relationship: Wall shear rate=8 Vmean/D. Estimates of volumetric flow rates (Q) were made from Vmean and the vessel cross-sectional area (π D^2/4). Rolling leukocytes were defined as those leukocytes that distinctly roll along the endothelial surface. The rolling leukocytes were easily distinguished because of their lower velocity compared with that of leukocytes and red cells in the flow. Rolling leukocyte velocity (μm/s) represented the time required for a rolling leukocyte to traverse a given length of venule. An average of rolling velocities of approximately ten leukocytes per venule was determined by frame-by-frame analysis of video replay. […]

[4] = single i.p. dose 400 mg/kg, 16 h hypoxia, 3 h reoxygenation, cremaster venules

`Cc1ncc(CO)c(CN)c1O` [pyridoxamine] was tested, and the “time of maximum effect on cerebral blood flow (CBF)” value (Berkeley mice [1]; single oral dose 400 mg/kg, gavage) was 72 h, the “effect on cerebral blood flow (CBF)” value (Berkeley mice [1]; single oral dose 400 mg/kg, gavage, versus C57 wild type) was “normalized the CBF to near wild type” and the “time of maximum response of brain perfusion” value (Berkeley mice [1]; single oral dose 100-400 mg/kg) was 72 h. The “effect on perfusion in the brain” value (Berkeley mice [1]; single oral dose 100-400 mg/kg, versus wild type C57BL mice) was “normalized perfusion in the brain of Berkeley mice to wild type values”, the “duration of sustained effects of treatment” value (Berkeley mice [1]; transgenic mouse models of SCD, single dose) was “up to 9 days” and the “deoxygenated hemoglobin/oxygenated hemoglobin ratio in brain after treatment” value (Berkeley mice [2]; 72 h after treatment) was “significant decrease”. For the same compound, the “time of maximum effect on brain deoxyHb/oxyHb ratio (BOLD)” value (Berkeley mice [2]; brain) was 72 h, the “time of maximal effect on cranial muscle BOLD signal (oxyhemoglobin increase)” value (Berkeley mice [2]; cranial muscle) was 72 h and the “hypoxia/reoxygenation induced endothelial activation” value (Berkeley mice [3]) was “ameliorated”. For the same compound, the “change in venule diameter” value (NY1DD mice; single i.p. dose 400 mg/kg, 16 h hypoxia, 3 h reoxygenation, 400 mg/kg) was “minimal change”, the “decrease in leukocyte adhesion” value (NY1DD mice; [4]) was 84% and the “decrease in leukocyte emigration” value (NY1DD mice; [4]) was 95%. For the same compound, the “decrease in rolling leukocytes” value (NY1DD mice; [4]) was 24%, the “increase in red blood cell flow velocity (Vrbc)” value (NY1DD mice; [4]) was 42% and the “increase in wall shear rate” value (NY1DD mice; [4]) was 92%. The “hypoxia/reoxygenation induced endothelial activation” value (NY1DD mice; single i.p. dose, NY1DD mice exposed to hypoxic stress) was “ameliorated”.

— patent US20170056381A1, “PYRIDOXAMINE FOR THE TREATMENT OF SICKLE CELL DISEASE, THALASSEMIA AND RELATED BLOOD DISEASES” (NANOMETICS LLC, priority 2014, published 2017)
